Laboratory results from patent US7977332B2, “Insecticidal N-(heteroarylalkyl)alkanediamine derivatives” (FMC Corporation, priority 2003, dated 2011).

What follows are molecules tested on tobacco budworm (Heliothis virescens [Fabricius]) (assay: surface-treated diet test against tobacco budworm). Conditions: 0.25 millimolar on the surface of the diet; second instar larvae; five-day exposure.
Assay type: in vivo
Experimental: Candidate insecticides were evaluated for activity against the tobacco budworm (Heliothis virescens [Fabricius]) in a surface-treated diet test.
In this test one mL of molten (65-70° C.) wheat germ-based artificial diet was pipetted into each well of a four by six (24 well) multi-well plate (ID# 430345-15.5 mm dia.×17.6 mm deep; Corning Costar Corp., One Alewife Center, Cambridge, Mass. 02140). The diet was allowed to cool to ambient temperature before treatment with candidate insecticide.
For a determination of insecticidal activity, solutions of the candidate insecticides were prepared for testing using a Packard 204DT Multiprobe® Robotic System (Packard Instrument Company, 800 Research Parkway, Meriden, Conn. 06450), in which the robot first diluted a standard 50 millimolar DMSO solution of candidate insecticide with a 1:1 water/acetone solution (V/V) in a ratio of 1:7 stock solution to water/acetone. The robot subsequently pipetted 40 microliters of the so-prepared solution onto the surface of the diet in each of three wells in the 24 multi-well plate. The process was repeated with solutions of seven other candidate insecticides. Once treated, the contents of the multi-well plate were allowed to dry, leaving 0.25 millimoles of candidate insecticide on the surface of the diet, or a concentration of 0.25 millimolar. Appropriate untreated controls containing only DMSO on the diet surface were also included in this test.
For evaluations of the insecticidal activity of a candidate insecticide at varying rates of application, the test was established as described above using sub-multiples of the standard 50 millimolar DMSO solution of candidate insecticide. For example, the standard 50 millimolar solution was diluted by the robot with DMSO to give 5, 0.5, 0.05, 0.005, 0.0005 millimolar, or more dilute solutions of the candidate insecticide. In these evaluations there were six replicates of each rate of application placed on the surface of the diet in the 24 multi-well plate, for a total of four rates of application of candidate insecticide in each plate.
In each well of the test plate was placed one second instar tobacco budworm larvea, each weighing approximately five milligrams. After the larvae were placed in each well, the plate was sealed with clear polyfilm adhesive tape. The tape over each well was perforated to ensure an adequate air supply. The plates were then held in a growth chamber at 25° C. and 60% relative humidity for five days (light 14 hours/day).
After the five-day exposure period insecticidal activity for each rate of application of candidate insecticide was assessed as percent inhibition of insect weight relative to the weight of insects from untreated controls, and percent mortality when compared to the total number of insects infested.
The test compounds of formula I are identified by numbers that correspond to those in Table 1.
CSC(=C[N+](=O)[O-])NCCN(CCC(F)(F)F)Cc1ccc(Cl)nc1 [Compound 3] was tested, and the “Percent Mortality” value was 50%.
In the case of CSC(=C[N+](=O)[O-])NCCN(CC#N)Cc1ccc(Cl)nc1 [Compound 10], the “Percent Mortality” value was 17%.
For C=CCN(CCNC(=C[N+](=O)[O-])OC)Cc1ccc(Cl)nc1 [Compound 242], the “Percent Mortality” value was 83%.
In the case of C#CCN(CCN/C(=C/[N+](=O)[O-])OC)Cc1ccc(Cl)nc1 [Compound 244], the “Percent Mortality” value was 83%.
In the case of C#CCN(CCNC(=C[N+](=O)[O-])SC)Cc1ccc(Cl)nc1 [Compound 248, {2-[((1Z)-1-methylthio-2-nitrovinyl)amino]ethyl}[(6-chloro(3-pyridyl)methyl]prop-2-ynylamine], the “Percent Mortality” value was 100%.

Same assay, conditions: 0.25 millimolar on the surface of the diet; second instar larvae; five-day exposure; insect weight relative to untreated controls
For COC(=C[N+](=O)[O-])NCCN(CCCF)Cc1ccc(Cl)nc1 [Compound 1], the “Percent Growth Inhibition” value was 100%.
With CSC(=C[N+](=O)[O-])NCCN(CCCF)Cc1ccc(Cl)nc1 [Compound 2] the “Percent Growth Inhibition” value was 100%.
For CSC(=C[N+](=O)[O-])NCCN(CCC(F)(F)F)Cc1ccc(Cl)nc1 [Compound 3], the “Percent Growth Inhibition” value was 96%.
In the case of COCCN(CCNC(=C[N+](=O)[O-])SC)Cc1ccc(Cl)nc1 [Compound 4], the “Percent Growth Inhibition” value was 100%.
With CCOCCN(CCNC(=C[N+](=O)[O-])SC)Cc1ccc(Cl)nc1 [Compound 5] the “Percent Growth Inhibition” value was 100%.
In the case of COCCOCCN(CCNC(=C[N+](=O)[O-])OC)Cc1ccc(Cl)nc1 [Compound 6], the “Percent Growth Inhibition” value was 95%.
COCCOCCN(CCNC(=C[N+](=O)[O-])SC)Cc1ccc(Cl)nc1 [Compound 7] was tested, and the “Percent Growth Inhibition” value was 99%.
COCCOCCN(CCNC(=C[N+](=O)[O-])OCCOC)Cc1ccc(Cl)nc1 [Compound 8] was tested, and the “Percent Growth Inhibition” value was 100%.
For CSC(=C[N+](=O)[O-])NCCN(O)Cc1ccc(Cl)nc1 [Compound 9], the “Percent Growth Inhibition” value was 91%.
With CSC(=C[N+](=O)[O-])NCCN(CC#N)Cc1ccc(Cl)nc1 [Compound 10] the “Percent Growth Inhibition” value was 90%.
For CSC(=C[N+](=O)[O-])NCCN(Cc1ccc(Cl)nc1)CC1CCOC1 (stereo not drawn) [Compound 14], the “Percent Growth Inhibition” value was 100%.
For CSC(=C[N+](=O)[O-])NCCN(Cc1ccc(Cl)nc1)CC1CCCCO1 (stereo not drawn) [Compound 15], the “Percent Growth Inhibition” value was 85%.
In the case of CSC(=C[N+](=O)[O-])NCCN(Cc1ccc(Cl)nc1)Cc1ccsc1 [Compound 17], the “Percent Growth Inhibition” value was 99%.
CSC(=C[N+](=O)[O-])NCCN(Cc1ccc(Cl)nc1)Cc1ccco1 [Compound 18] was tested, and the “Percent Growth Inhibition” value was 100%.
In the case of CSC(=C[N+](=O)[O-])NCCN(Cc1ccc(Cl)nc1)Cc1ccoc1 [Compound 19], the “Percent Growth Inhibition” value was 100%.
For CCN(CCNC(=C[N+](=O)[O-])OC)Cc1ccc(Cl)nc1 [Compound 41], the “Percent Growth Inhibition” value was 100%.
For COC(=C[N+](=O)[O-])NCCN(Cc1ccc(Cl)nc1)Cc1ccc(Cl)nc1 [Compound 187], the “Percent Growth Inhibition” value was 50%.
With CC(C)COC(=C[N+](=O)[O-])NCCN(Cc1ccc(Cl)nc1)Cc1ccc(Cl)nc1 [Compound 189] the “Percent Growth Inhibition” value was 100%.
With O=[N+]([O-])C=C(NCCN(Cc1ccc(Cl)nc1)Cc1ccc(Cl)nc1)OCC1CCCCC1 [Compound 190] the “Percent Growth Inhibition” value was 100%.
For CSC(=C[N+](=O)[O-])NCCN(Cc1cccnc1)Cc1ccc(Cl)nc1 [Compound 192], the “Percent Growth Inhibition” value was 92%.
CSC(=C[N+](=O)[O-])NCCN(Cc1ccc(Cl)nc1)Cc1ccc(Cl)nc1 [Compound 198] was tested, and the “Percent Growth Inhibition” value was 50%.
With CC(C)CSC(=C[N+](=O)[O-])NCCN(Cc1ccc(Cl)nc1)Cc1ccc(Cl)nc1 [Compound 202] the “Percent Growth Inhibition” value was 100%.
In the case of O=[N+]([O-])C=C(NCCN(Cc1ccc(Cl)nc1)Cc1ccc(Cl)nc1)SCC1CCCCC1 [Compound 203], the “Percent Growth Inhibition” value was 100%.
For C=CCN(CCNC(=C[N+](=O)[O-])SC)Cc1ccc(Cl)nc1 [Compound 220], the “Percent Growth Inhibition” value was 100%.
With C=CCN(CCNC(=C[N+](=O)[O-])SCC1CCCCC1)Cc1ccc(Cl)nc1 [Compound 221] the “Percent Growth Inhibition” value was 100%.
For C=CCCN(CCNC(=C[N+](=O)[O-])SC)Cc1ccc(Cl)nc1 [Compound 222], the “Percent Growth Inhibition” value was 100%.
CC=CCN(CCNC(=C[N+](=O)[O-])SC)Cc1ccc(Cl)nc1 [Compound 223] was tested, and the “Percent Growth Inhibition” value was 98%.
CSC(=C[N+](=O)[O-])NCCN(CC=CCl)Cc1ccc(Cl)nc1 [Compound 224] was tested, and the “Percent Growth Inhibition” value was 100%.
For C=C(Cl)CN(CCNC(=C[N+](=O)[O-])SC)Cc1ccc(Cl)nc1 [Compound 225], the “Percent Growth Inhibition” value was 89%.
In the case of CSC(=C[N+](=O)[O-])NCCN(CC=C(Cl)Cl)Cc1ccc(Cl)nc1 [Compound 228], the “Percent Growth Inhibition” value was 100%.
With CSC(=C[N+](=O)[O-])NCCN(CCC(F)=C(F)F)Cc1ccc(Cl)nc1 [Compound 229] the “Percent Growth Inhibition” value was 96%.
With CSC(=C[N+](=O)[O-])NCCN(CC=Cc1ccccc1)Cc1ccc(Cl)nc1 [Compound 230] the “Percent Growth Inhibition” value was 88%.
For C=CCN(CCNC(=N[N+](=O)[O-])SC)Cc1ccc(Cl)nc1 [Compound 231], the “Percent Growth Inhibition” value was 100%.
In the case of C=CCN(CCNC(=C[N+](=O)[O-])OC)Cc1ccc(Cl)nc1 [Compound 242], the “Percent Growth Inhibition” value was 96%.
In the case of C#CCN(CCN/C(=C/[N+](=O)[O-])OC)Cc1ccc(Cl)nc1 [Compound 244], the “Percent Growth Inhibition” value was 100%.
With C#CCN(CCNC(=C[N+](=O)[O-])OCC)Cc1ccc(Cl)nc1 [Compound 245] the “Percent Growth Inhibition” value was 100%.
With C#CCN(CCNC(=C[N+](=O)[O-])OCCOC)Cc1ccc(Cl)nc1 [Compound 246] the “Percent Growth Inhibition” value was 100%.
For C#CCN(CCNC(=C[N+](=O)[O-])OCCOCCOC)Cc1ccc(Cl)nc1 [Compound 247], the “Percent Growth Inhibition” value was 100%.
C#CCN(CCNC(=C[N+](=O)[O-])SC)Cc1ccc(Cl)nc1 [Compound 248, {2-[((1Z)-1-methylthio-2-nitrovinyl)amino]ethyl}[(6-chloro(3-pyridyl)methyl]prop-2-ynylamine] was tested, and the “Percent Growth Inhibition” value was 100%.
With C#CCCN(CCNC(=C[N+](=O)[O-])SC)Cc1ccc(Cl)nc1 [Compound 252] the “Percent Growth Inhibition” value was 100%.
CC#CCN(CCNC(=C[N+](=O)[O-])SC)Cc1ccc(Cl)nc1 [Compound 253] was tested, and the “Percent Growth Inhibition” value was 100%.
In the case of CC#CCCN(CCNC(=C[N+](=O)[O-])SC)Cc1ccc(Cl)nc1 [Compound 254], the “Percent Growth Inhibition” value was 100%.
In the case of CCCCCC#CCN(CCNC(=C[N+](=O)[O-])SC)Cc1ccc(Cl)nc1 [Compound 255], the “Percent Growth Inhibition” value was 88%.
With C#CCN(CCNC(=C[N+](=O)[O-])OCC1CCCCC1)Cc1ccc(Cl)nc1 [Compound 256] the “Percent Growth Inhibition” value was 100%.
With C#CCN(CCNC(=C[N+](=O)[O-])SCC1CCCCC1)Cc1ccc(Cl)nc1 [Compound 257] the “Percent Growth Inhibition” value was 100%.
For C#CCCN(CCNC(=C[N+](=O)[O-])SCC1CCCCC1)Cc1ccc(Cl)nc1 [Compound 258], the “Percent Growth Inhibition” value was 100%.
With C#CCN(CCNC(=N[N+](=O)[O-])SC)Cc1ccc(Cl)nc1 [Compound 279] the “Percent Growth Inhibition” value was 100%.
With CSC(=C[N+](=O)[O-])NCCN(CCC#Cc1ccc(Cl)cc1)Cc1ccc(Cl)nc1 [Compound 301] the “Percent Growth Inhibition” value was 100%.
For CSC(=C[N+](=O)[O-])NCCN(CC#Cc1ccc(F)cc1)Cc1ccc(Cl)nc1 [Compound 302], the “Percent Growth Inhibition” value was 97%.
CSC(=C[N+](=O)[O-])NCCN(CC#Cc1cncnc1)Cc1ccc(Cl)nc1 [Compound 304] was tested, and the “Percent Growth Inhibition” value was 61%.
In the case of O=[N+]([O-])C=C(NCCN(Cc1ccccc1)Cc1ccc(Cl)nc1)SCc1ccc(C(F)(F)F)cc1 [Compound 307], the “Percent Growth Inhibition” value was 100%.
With COc1ccc(CN(CCNC(=N[N+](=O)[O-])SCc2ccccc2)Cc2ccc(Cl)nc2)cc1 [Compound 310] the “Percent Growth Inhibition” value was 100%.
For COc1ccc(CN(CCNC(=N[N+](=O)[O-])SCc2ccc(Cl)cc2)Cc2ccc(Cl)nc2)cc1 [Compound 311], the “Percent Growth Inhibition” value was 100%.
For O=[N+]([O-])C=C(NCCN(Cc1ccc(Cl)nc1)Cc1ccc(Cl)nc1)SCc1ccccc1Cl [Compound 314], the “Percent Growth Inhibition” value was 100%.
In the case of O=[N+]([O-])C=C(NCCN(Cc1ccc(Cl)nc1)Cc1ccc(Cl)nc1)SCc1cccc(Cl)c1 [Compound 315], the “Percent Growth Inhibition” value was 98%.
For O=[N+]([O-])C=C(NCCN(Cc1ccc(Cl)nc1)Cc1ccc(Cl)nc1)SCc1c(F)c(F)c(F)c(F)c1F [Compound 318], the “Percent Growth Inhibition” value was 100%.
Cc1ccccc1CSC(=C[N+](=O)[O-])NCCN(Cc1ccc(Cl)nc1)Cc1ccc(Cl)nc1 [Compound 319] was tested, and the “Percent Growth Inhibition” value was 10%.
With Cc1cccc(CSC(=C[N+](=O)[O-])NCCN(Cc2ccc(Cl)nc2)Cc2ccc(Cl)nc2)c1 [Compound 320] the “Percent Growth Inhibition” value was 96%.
Cc1ccc(CSC(=C[N+](=O)[O-])NCCN(Cc2ccc(Cl)nc2)Cc2ccc(Cl)nc2)cc1 [Compound 321] was tested, and the “Percent Growth Inhibition” value was 100%.
For O=[N+]([O-])C=C(NCCN(Cc1ccc(Cl)nc1)Cc1ccc(Cl)nc1)SCc1ccccc1C(F)(F)F [Compound 322], the “Percent Growth Inhibition” value was 100%.
In the case of O=[N+]([O-])C=C(NCCN(Cc1ccc(Cl)nc1)Cc1ccc(Cl)nc1)SCc1cccc(C(F)(F)F)c1 [Compound 323], the “Percent Growth Inhibition” value was 100%.
